{"source": "patent US20220111378A1", "about": "“METHODS AND SYSTEMS FOR DETERMINING TARGET SENSITIVITY TO A THERAPEUTIC FORMULA” (priority 2019, published 2022)", "key": {"[1]": {"tested_on": "sterile urine sample spiked with clinical isolate EcUAH202", "settings": "EcUAH202 spiked into sterile urine; breakpoint concentrations; confirmed for ampicillin within approximately 5 minutes", "method": "To prepare a spiked bacterial sample, 1 mL of an overnight culture was diluted into 25 mL of warm cation-adjusted Mueller Hinton broth, allowed to grow to log phase at 37 C in a shaking incubator, and counted using a hemocytometer. […] A 2-mL aliquot of the bacterial solution was added to a disposable 1-cm cuvette containing a pre-dispensed volume of water, diluent and antibiotic according to the experiment at hand. The fluids were mixed by pipetting. A no-antibiotic control was used in each experiment, which contained only the appropriate volume of water and diluent. A set of three cuvettes, such as in 41 or 43a, 43b or 43c, containing identical mixtures were assembled side-to-side into a three-centimeter light path and inserted into the prototype sensitivity module shown in FIGS. 2A and 2B. A total of four sets of cuvettes could be examined in the prototype at one time. The prototype maintains the cultures at 37 C with gentle agitation to mitigate the effects of bacterial settling. Optical transmissions through each set of cuvettes were taken every 5 seconds for the no-antibiotic control and the experimental cuvettes. The bacteria were allowed to grow from 10 minutes to two hours depending on the antibiotics and/or bacteria being tested. The final curves were analyzed to determine whether the bacteria were sensitive or resistant to each drug or drug combination. […]"}, "[2]": {"tested_on": "Staphylococcus aureus SaR100", "assay": "Growth curves at breakpoint concentrations compared with culture results (optical AST)", "type": "cell-based", "settings": "clinical isolate SaR100, confirmed by growth curves within approximately 42 minutes", "method": "(§1) To prepare a spiked bacterial sample, 1 mL of an overnight culture was diluted into 25 mL of warm cation-adjusted Mueller Hinton broth, allowed to grow to log phase at 37 C in a shaking incubator, and counted using a hemocytometer. The bacteria were then diluted in additional warm broth to a final concentration of 1E5 to 8E5 CFU/mL. A 2-mL aliquot of the bacterial solution was added to a disposable 1-cm cuvette containing a pre-dispensed volume of water, diluent and antibiotic according to the experiment at hand. The fluids were mixed by pipetting. A no-antibiotic control was used in each experiment, which contained only the appropriate volume of water and diluent. A set of three cuvettes, such as in 41 or 43a, 43b or 43c, containing identical mixtures were assembled side-to-side into a three-centimeter light path and inserted into the prototype sensitivity module shown in FIGS. 2A and 2B. A total of four sets of cuvettes could be examined in the prototype at one time. The prototype maintains the cultures at 37 C with gentle agitation to mitigate the effects of bacterial settling. Optical transmissions through each set of cuvettes were taken every 5 seconds for the no-antibiotic control and the experimental cuvettes. The bacteria were allowed to grow from 10 minutes to two hours depending on the antibiotics and/or bacteria being tested. The final curves were analyzed to determine whether the bacteria were sensitive or resistant to each drug or drug combination.\n(§2) In the proof-of-concept device used to generate the data provided in this example, a 3-cm light path and lasers at 405 nm and 532 nm were used. Antimicrobial resistance profiles of 17 clinical isolates of 11 uropathogens were followed from 20 minutes to three hours, against 8 antibiotics, both lytic and static."}, "[3]": {"tested_on": "Escherichia coli EcUAH202", "assay": "Growth curves at breakpoint concentrations compared with culture results (optical AST)", "type": "cell-based", "settings": "clinical isolate EcUAH202, confirmed for ampicillin and levofloxacin within approximately 7 minutes", "method": "as §1, §2"}, "[4]": {"tested_on": "Pseudomonas aeruginosa PaH201", "assay": "Growth curves at breakpoint concentrations compared with culture results (optical AST)", "type": "cell-based", "settings": "clinical isolate PaH201, confirmed for ampicillin and ciprofloxacin within approximately 42 minutes", "method": "as §1, §2"}, "[5]": {"tested_on": "Enterococcus faecalis EfR100", "assay": "Growth curves at breakpoint concentrations compared with culture results (optical AST)", "type": "cell-based", "settings": "clinical isolate EfR100, confirmed by growth curves within approximately 33 minutes", "method": "as §1, §2"}, "K. pneumoniae KpH201": {"tested_on": "K. pneumoniae KpH201", "settings": "clinical isolate KpH201; breakpoint concentrations; confirmed by growth curves vs no-antibiotic control within approximately 20 minutes", "method": "as §1, with “The bacteria were allowed to grow from 10 minutes to two hours depending on the antibiotics and/or bacteria being tested.” left out, “combination. […]” for “combination.”"}, "[6]": {"tested_on": "Candida tropicalis CanTCDC345", "assay": "Growth curves at breakpoint concentrations compared with culture results (optical AST)", "type": "cell-based", "settings": "clinical isolate CanTCDC345, confirmed for caspofungin within approximately 12 minutes", "method": "as §1, §2"}}, "data": [{"smiles": "CC1(C)S[C@@H]2[C@H](NC(=O)[C@H](N)c3ccccc3)C(=O)N2[C@H]1C(=O)O", "note": "[ampicillin]", "values": [{"measurement": "Culture results: sensitivity or resistance of the strain", "setting": "[1]", "result": "resistance"}, {"measurement": "Culture results: sensitivity or resistance of the strain", "setting": "[2]", "result": "sensitivity"}, {"measurement": "Culture results: sensitivity or resistance of the strain", "setting": "[3]", "result": "resistance"}, {"measurement": "Culture results: sensitivity or resistance of the strain", "setting": "[4]", "result": "resistance"}, {"measurement": "Culture results: sensitivity or resistance of the strain", "setting": "[5]", "result": "sensitivity"}, {"measurement": "Culture results: sensitivity or resistance of the strain", "setting": "K. pneumoniae KpH201", "result": "sensitivity"}]}, {"smiles": "CC[C@H](C)C[C@H](C)CCCCCCCCC(=O)N[C@H]1C[C@@H](O)[C@@H](NCCN)NC(=O)[C@@H]2[C@@H](O)CCN2C(=O)[C@H]([C@H](O)CCN)NC(=O)[C@H]([C@H](O)[C@@H](O)c2ccc(O)cc2)NC(=O)[C@@H]2C[C@@H](O)CN2C(=O)[C@H]([C@@H](C)O)NC1=O", "note": "[caspofungin]", "values": [{"measurement": "Culture results: sensitivity or resistance of the strain", "setting": "[6]", "result": "sensitivity"}]}]}
